Read-outs that look alike come from different tables or passages of the source.
Tested on: transcription from VEGF promoter
Assay: VEGF transcription-suppressing activity, VEGF-PLAP reporter in U251/1-8 cell
Type: cell-based
Details: Homo sapiens, U-251, U251/1-8 cell, PLAP activity, low oxygen 18 hours
Source text: In order to prepare reporter system reflecting transcription from VEGF promoter, VEGF promoter sequence was cloned, and inserted in secretory alkali phosphatase (PLAP) vector to construct reporter vector.
In order to obtain the promoter region of human VEGF, VEGF genome was cloned from phage library. PCR primers having the sequences described in Sequence Numbers 1 and 2 were designed based on VEGF cDNA (GenBank accession number: X62568) and a fragment having about 340 bp was obtained by carrying out PCR. Human genome phage library (Human genomic library, Clontech Co.) was screened using this as a probe to obtain pUC18-VEGFA containing about 5.4 kb of VEGF 5′ flanking region. The pUC18-VEGFA was cleaved by KpnI/NheI, VEGF promoter region of about 2.3 kb obtained was inserted in the multi cloning site KpnI/NheI of secretory alkali phosphatase (PLAP) vector (Goto et al, Mol. Pharmacol., 49, 860-873, 1996), and thus, VEGF-PLAP vector was constructed.
The above-mentioned VEGF-PLAP vector was introduced in the U251 cell cultured in the DULBECCO-modified eagle medium (DMEM; manufactured by SIGMA Co., Ltd.) containing 10% fetal calf serum, and cultured in the presence of 1 mg/ml G418 (Merck Co.) to establish G418 resistant stable clone (U251/1-8 cell).
It was confirmed that U251/1-8 cell secreted PLAP under low oxygen (2% O2 incubator) in the same manner as in the report (Cell. Mol. Biol. Res. 40, 35-39, 1994) and was a reporter system reflecting the transcription from VEGF promoter. The screening of the compound suppressing VEGF production which was induced by low oxygen stimulation was carried out below using the clone.
In order to remove the influence of alkaline phosphates in serum, U251/1-8 cell was rinsed twice with the adequate amount of PBS (Phosphate buffered saline), diluted in the DMEM medium containing 10% of serum in which alkaline phosphates was inactivated by the treatment of 60° C. for 20 min., and dispensed in 96-well plates by 4×10^4 cells/180 μl.
After culturing at 37° C. overnight in a CO2 incubator (5% CO2), 20 μL of the above-mentioned incubation solution containing the test compound diluted with 3-fold succession was added, and then they were incubated in a low oxygen ([…]) incubator for 18 hours. With respect to the PLAP activity in the culture supernatants, 10 μl of the supernatants was added to 50 μl of 0.28 M Na2CO3—NaHCO3 buffer solution (pH 10.0, 8.0 mM MgSO4), and finally 50 μl of alkaline phosphatase substrate (LUMISTEIN, Genomescience Co.) was added. After reacting for one hour, the alkaline phosphatase activity of the PLAP was measured by detecting the chemical luminescence by a micro plate reader (Perkin-Elmer Co.).
The PLAP activity under usual oxygen was set as 0%, the PLAP activity of cell which was treated under low oxygen was set as 100%, and the concentration suppressing the PLAP activity by 50% was set as the IC50 value of PLAP.

[1] = read-out: IC50 values of VEGF transcription-suppressing activity (range given)

## CCC(O)C(C)C1OC1CC(C)/C=C/C=C(\C)C1OC(=O)CC(O)CCC(C)(O)C(OC(=O)N2CCC(O)CC2)/C=C/C1C (stereo not drawn) [B48, (8E,12E,14E)-3,6,21-Trihydroxy-7-((4-hydroxypiperidin-1-yl)carbonyl)oxy-6,10,12,16,20-pentamethyl-18,19-epoxytricosa-8,12,14-trien-11-olide]
[1]
  IC50: 0.5 to 100 nM

## CCC(O)C(C)C1OC1CC(C)/C=C/C=C(\C)C1OC(=O)CC(O)CCC(C)(O)C(OC(=O)NCCCN(C)C)/C=C/C1C (stereo not drawn) [B55, (8E,12E,14E)-7-(N-(3-Dimethylamino)propyl)carbamoyloxy-3,6,21-trihydroxy-6,10,12,16,20-pentamethyl-18,19-epoxytricosa-8,12,14-trien-11-olide]
[1]
  IC50: 0.5 to 100 nM

## CCC(O)C(C)C1OC1CC(C)/C=C/C=C(\C)C1OC(=O)CC(O)CCC(C)(O)C(OC(=O)NCCN2CCCC2)/C=C/C1C (stereo not drawn) [B64, (8E,12E,14E)-3,6,21-Trihydroxy-6,10,12,16,20-pentamethyl-7-N-(2-(pyrrolidin-1-yl)ethyl)carbamoyloxy-18,19-epoxytricosa-8,12,14-trien-11-olide]
[1]
  IC50: 0.5 to 100 nM

## CCC(OC)C(C)C1OC1CC(C)/C=C/C=C(\C)C1OC(=O)CC(O)CCC(C)(OC)C(OC(C)=O)/C=C/C1C (stereo not drawn) [B8-2, (8E,12E,14E)-7-acetoxy-3-hydroxy-6,21-dimethoxy-6,10,12,16,20-pentamethyl-18,19-epoxytricosa-8,12,14-trien-11-olide]
[1]
  IC50: 0.5 to 100 nM

## CCC(O)C(C)C1OC1CC(C)/C=C/C=C(\C)C1OC(=O)CC(O)CCC(C)(O)C(OC(=O)N2CCN(CC)CC2)/C=C/C1C (stereo not drawn) [B65, (8E,12E,14E)-3,6,21-Trihydroxy-6,10,12,16,20-pentamethyl-7-((4-ethylpiperazin-1-yl)carbonyl)oxy-18,19-epoxytricosa-8,12,14-trien-11-olide]
[1]
  IC50: 0.5 to 100 nM

## CCC(O)C(C)C(O)C(Br)CC(C)/C=C/C=C(\C)C1OC(=O)CC(O)CCC(C)(O)C(OC(C)=O)/C=C/C1C (stereo not drawn) [B2-1, (8E,12E,14E)-7-Acetoxy-18-bromo-3,6,19,21-tetrahydroxy-6,10,12,16,20-pentamethyltricosa-8,12,14-trien-11-olide]
[1]
  IC50: 0.5 to 100 nM

## CCC(OC(=O)N1CCN(C)CC1)C(C)C1OC1CC(C)/C=C/C=C(\C)C1OC(=O)CC(O)CCC(C)(O)C(OC(C)=O)/C=C/C1C (stereo not drawn) [B36-2, (8E,12E,14E)-7-acetoxy-21-((4-methylpiperazin-1-yl)carbonyl)oxy-3,6-dihydroxy-6,10,12,16,20-pentamethyl-18,19-epoxytricosa-8,12,14-trien-11-olide]
[1]
  IC50: 0.5 to 100 nM

## CCC(O)C(C)C1OC1CC(C)/C=C/C=C(\C)C1OC(=O)CC(O)CCC(C)(O)C(OC(=O)N2CC(C)NCC2C)/C=C/C1C (stereo not drawn) [B67, (8E,12E,14E)-3,6,21-Trihydroxy-6,10,12,16,20-pentamethyl-7-((2,5-dimethylpiperazin-1-yl)carbonyl)oxy-18,19-epoxytricosa-8,12,14-trien-11-olide]
[1]
  IC50: 0.5 to 100 nM

## CCC(O)C(C)C(O)C(I)CC(C)/C=C/C=C(\C)C1OC(=O)CC(O)CCC(C)(O)C(OC(C)=O)/C=C/C1C (stereo not drawn) [B3-2, (8E,12E,14E)-7-acetoxy-3,6,19,21-tetrahydroxy-18-iodo-6,10,12,16,20-pentamethyltricosa-8,12,14-trien-11-olide]
[1]
  IC50: 0.5 to 100 nM

## CCC(OC(=O)CO)C(C)C1OC1CC(C)/C=C/C=C(\C)C1OC(=O)CC(O)CCC(C)(O)C(OC(C)=O)/C=C/C1C (stereo not drawn) [B27]
[1]
  IC50: 0.5 to 100 nM

## CCC(O)C(C)C1OC1CC(C)/C=C/C=C(\C)C1OC(=O)CC(O)CCC(C)(O)C(OC(N)=O)/C=C/C1C (stereo not drawn) [B44, (8E,12E,14E)-7-Carbamoyloxy-3,6,21-trihydroxy-6,10,12,16,20-pentamethyl-18,19-epoxytricosa-8,12,14-trien-11-olide]
[1]
  IC50: 0.5 to 100 nM

## CCC(O)C(C)C1OC1CC(C)/C=C/C=C(\C)C1OC(=O)CC(OC(=O)N2CCC(N3CCCCC3)CC2)CCC(C)(O)C(OC(C)=O)/C=C/C1C (stereo not drawn) [B37-1]
[1]
  IC50: 0.5 to 100 nM

## CCC(O)C(C)C1OC1CC(C)/C=C/C=C(\C)C1OC(=O)CC(O)/C=C/C(C)(O)C(OC(C)=O)/C=C/C1C (stereo not drawn) [11107H]
[1]
  IC50: 1 to 100 nM
read-out: VEGF transcription suppressing activity (IC50: nM)
  IC50: 3.1 nM

## CCC(O)C(C)C1OC1CC(C)/C=C/C=C(\C)C1OC(=O)CC(O)CCC(C)(OC)C(OC(C)=O)/C=C/C1C (stereo not drawn) [B8-5, (8E,12E,14E)-7-acetoxy-3,21-dihydroxy-6-methoxy-6,10,12,16,20-pentamethyl-18,19-epoxytricosa-8,12,14-trien-11-olide]
[1]
  IC50: 0.5 to 100 nM

## CCOCC(=O)OC(CC)C(C)C1OC1CC(C)/C=C/C=C(\C)C1OC(=O)CC(O)CCC(C)(O)C(OC(C)=O)/C=C/C1C (stereo not drawn) [B25, (8E,12E,14E)-7-Acetoxy-21-ethoxyacetoxy-3,6-dihydroxy-6,10,12,16,20-pentamethyl-18,19-epoxytricosa-8,12,14-trien-11-olide]
[1]
  IC50: 0.5 to 100 nM

## CCC(OC)C(C)C1OC1CC(C)/C=C/C=C(\C)C1OC(=O)CC(O)CCC(C)(O)C(OC(C)=O)/C=C/C1C (stereo not drawn) [B8-1, (8E,12E,14E)-7-Acetoxy-3,6-dihydroxy-21-methoxy-6,10,12,16,20-pentamethyl-18,19-epoxytricosa-8,12,14-trien-11-olide]
[1]
  IC50: 0.5 to 100 nM

## CCC(O)C(C)C1OC1CC(C)/C=C/C=C(\C)C1OC(=O)CC(O)CCC(C)(O)C(OC(=O)CCl)/C=C/C1C (stereo not drawn) [B39, (8E,12E,14E)-7-Chloroacetoxy-3,6,21-trihydroxy-6,10,12,16,20-pentamethyl-18,19-epoxytricosa-8,12,14-trien-11-olide]
[1]
  IC50: 0.5 to 100 nM

## CCC(O)C(C)C1OC1CC(C)/C=C/C=C(\C)C1OC(=O)CC(O)CCC(C)(O)C(OC(=O)NCCc2ccccn2)/C=C/C1C (stereo not drawn) [B47, (8E,12E,14E)-3,6,21-Trihydroxy-6,10,12,16,20-pentamethyl-7-N-(2-(2-pyridyl)ethyl)carbamoyloxy-18,19-epoxytricosa-8,12,14-trien-11-olide]
[1]
  IC50: 0.5 to 100 nM

## CCC(O)C(C)C1OC1CC(C)/C=C/C=C(\C)C1OC(=O)CC(O)CCC(C)(O)C(OC(=O)N2CCCN(C)CC2)/C=C/C1C (stereo not drawn) [B62, (8E,12E,14E)-3,6,21-Trihydroxy-6,10,12,16,20-pentamethyl-7-((4-methylhomopiperazin-1-yl)carbonyl)oxy-18,19-epoxytricosa-8,12,14-trien-11-olide]
[1]
  IC50: 0.5 to 100 nM

## CCC(OC(N)=O)C(C)C1OC1CC(C)/C=C/C=C(\C)C1OC(=O)CC(O)CCC(C)(O)C(OC(C)=O)/C=C/C1C (stereo not drawn) [B35-2, (8E,12E,14E)-7-acetoxy-21-carbamoyloxy-3,6-dihydroxy-6,10,12,16,20-pentamethyl-18,19-epoxytricosa-8,12,14-trien-11-olide]
[1]
  IC50: 0.5 to 100 nM

## CC/C(=N\OCc1ccccc1)C(C)C1OC1CC(C)/C=C/C=C(\C)C1OC(=O)CC(O)CCC(C)(O)C(OC(C)=O)/C=C/C1C (stereo not drawn) [B75, (8E,12E,14E)-7-Acetoxy-21-benzyloxyimino-3,6-dihydroxy-6,10,12,16,20-pentamethyl-18,19-epoxytricosa-8,12,14-trien-11-olide]
[1]
  IC50: 0.5 to 100 nM

## CCC(O)C(C)C1OC1CC(C)/C=C/C=C(\C)C1OC(=O)CC(O)CCC(C)(O)C(OC(=O)N2CCNCC2)/C=C/C1C (stereo not drawn) [B52, (8E,12E,14E)-3,6,21-Trihydroxy-6,10,12,16,20-pentamethyl-7-((piperazin-1-yl)carbonyl)oxy-18,19-epoxytricosa-8,12,14-trien-11-olide]
[1]
  IC50: 0.5 to 100 nM

## CCC(O)C(C)C(Br)C(O)CC(C)/C=C/C=C(\C)C1OC(=O)CC(O)CCC(C)(O)C(OC(C)=O)/C=C/C1C (stereo not drawn) [B2-2, (8E,12E,14E)-7-acetoxy-19-bromo-3,6,18,21-tetrahydroxy-6,10,12,16,20-pentamethyltricosa-8,12,14-trien-11-olide]
[1]
  IC50: 0.5 to 100 nM

Reference: US7667052B2 (Eisai R&D Management Co., Ltd., priority 2003, dated 2010)
